# Results from paper PMC6213923, “Meroterpenoids and Isocoumarinoids from a Myrothecium Fungus Associated with Apocynum venetum” (Marine Drugs, 2018).
# Biological target: human-sourced α-glucosidase recombinant expressed in Saccharomyces cerevisiae
# Assay: α-glucosidase inhibitory assay (pNPG substrate)
# Format: biochemical
# Conditions: PBS pH 6.8, 37 °C, absorbance at 405 nm, preliminarily investigated, read-out: α-glucosidase inhibition IC50
# Description: The α-glucosidase inhibitory activity of 1–13 was preliminarily investigated.
# The sample was dissolved in sodium phosphate buffer (PBS, pH 6.8) at three concentrations. 10 μL of the sample solution, 20 μL of 2.5 mM pNPG solution (in phosphate buffer) and 20 μL of PBS were mixed in a 96-well microplate and incubated at 37 °C for 5 min. A volume of 10 μL of α-glucosidase diluted to 0.2 U/mL by 0.01 M PBS was then added to each well. After incubating at 37 °C for 15 min, the absorbance at 405 nm was recorded by a Spectra max 190 micro plate reader (Molecular Devices Inc., San Jose, CA, USA). The blank was prepared by adding phosphate buffer instead of the α-glucosidase and the positive control was acarbose. […] The inhibition (%) was calculated as [1 − (ODdrug/ODblank)] × 100%.
row,IC50,Compound
1,320 µM,"COc1cc(O)c2c(=O)occ(C(O)CO)c2c1 (stereo not shown) [Compound 5, Myrothelactone A]"
2,36 µM,"COc1cc(O)c2c(=O)occ(C(=O)CO)c2c1 [Compound 7, Myrothelactone C]"
3,26 µM,"COc1cc(O)c2c(=O)oc(CO)c(CO)c2c1 [Compound 9, tubakialactone B]"
4,370 µM,"Cc1c(CO)oc(=O)c2c(O)cc(O)cc12 [Compound 10, acremonone G]"
5,470 µM,"C[C@H]1O[C@H](O[C@H]2[C@H](O)[C@@H](O)[C@@H](O[C@H]3[C@H](O)[C@@H](O)C(O)O[C@@H]3CO)O[C@@H]2CO)[C@H](O)[C@@H](O)[C@@H]1N[C@H]1C=C(CO)[C@@H](O)[C@H](O)[C@H]1O (stereo partly shown) [acarbose, reference compound]"

row,Compound,IC50
1,"CC(=O)O[C@@H]1C[C@@]2(C)[C@@H](CC[C@@H](C)[C@]23Cc2c(cc(CO)c(C=O)c2O)O3)C(C)(C)[C@H]1O [Compound 1, Myrothecisin A]",500 µM
2,"CC(=O)O[C@H]1[C@H](O)C[C@@]2(C)[C@@H](CC[C@@H](C)[C@]23Cc2c(cc(CO)c(C=O)c2O)O3)C1(C)C [Compound 2, Myrothecisin B]",660 µM
3,"CC(=O)O[C@H]1CC=C2[C@@H](CC[C@@H](C)[C@@]2(C)Cc2c(O)cc(CO)c(C=O)c2O)C1(C)C [Compound 3, Myrothecisin C]",58 µM
4,"C[C@@H]1CC[C@@H]2C(=CC[C@H](O)C2(C)C)[C@]1(C)Cc1c(O)cc(CO)c(C=O)c1O [Compound 4, Myrothecisin D]",200 µM

# Test system: not given
# Assay: not given
# Conditions: not given
row,melting point,Compound
1,160 to 161 °C,"COc1cc(O)c2c(=O)occ(C(=O)CO)c2c1 [Compound 7, Myrothelactone C]"
